Source: patent publication US20240002379A1, “ASYMMETRIC CONJUGATE COMPOUNDS” (Pheon Therapeutics Ltd., priority 2016, published 2024)
pIC50: −log10 of the molar value. Entries after “also recorded” stand apart in the source; their conditions may differ. Like-named read-outs stand apart in the source and are kept apart here.

What was measured:
SW48 cell line (gastric) = assay: MTT cytotoxicity assay, SW48; assay type: cell-based; conditions: Homo sapiens, read-out: Cytotoxicity SW48 (72 hrs)
Procedure: (§1) Tumor cell lines were maintained in RPMI1640 medium supplemented with 10% heat-inactivated fetal bovine serum, 2 mM L-glutamine and 1 mM sodium pyruvate. 1800 cells per well were seeded in a volume of 180 μl in a 96-well flat bottom polystyrene plate. The cells were allowed to adhere overnight at 37° C. in a CO2 incubator. Ligands were initially formulated in DMSO, and stocks stored at −80° C. They were then further formulated at lox concentration in RPMI1640 medium. 20 ul of diluted samples were added into each treatment well. On each plate, blank wells with no cells, and untreated wells containing cells, were included. Plates were then cultured at 37° C. in a CO2 incubator for 72 hrs. Cytotoxicity was evaluated using a tetrazolium salt-based assay, the MTT assay. After 72 hours, the supernatant was removed from each well and 200 μl of a sterile filtered 500 μg/ml MTT solution in water added to each well. The plates were then incubated at 37° C. in a CO2 incubator for 4 hrs. The supernatant was then removed and the formazan crystals formed solubilized by adding 150 μl of DMSO to each well. The plate was then read on a plate reader at 540 nm, and percentage cell survival calculated as follows: ((mean absorbance treated wells at concentration x−mean absorbance blank wells)[…](mean absorbance untreated wells at concentration x−mean absorbance blank wells))×100. Data were plotted as concentration in nM vs. % cell survival in Microsoft Excel, and IC50 values (concentration where cell survival is reduced by a half) were determined from the graph.

PC3 (prostate) cell line = assay: MTT cytotoxicity assay, PC3; assay type: cell-based; conditions: 72 h, read-out: Cytotoxicity PC3 (nM, 72 hour)
Procedure: as §1

[1] = test system: LIM1215 cell line (gastric); assay: MTT cytotoxicity assay, LIM1215; assay type: cell-based; conditions: read-out: Cytotoxicity LIM1215 (72 hours)
Procedure: as §1

[2] = test system: SW620 cell line (gastric); assay: MTT cytotoxicity assay, SW620; assay type: cell-based; conditions: Homo sapiens, read-out: Cytotoxicity SW620 (72 hours)
Procedure: as §1

[3] = test system: FaDu (head and neck cancer) cell line; assay: MTT cytotoxicity assay, FaDu; assay type: cell-based; conditions: Homo sapiens, 72 h; for IC50: read-out: Cytotoxicity FaDu (nM, 72 hour)
Procedure: as §1

[4] = test system: linear double-stranded HexARev DNA fragment; assay: DNA cleavage assay, HexARev fragment; assay type: biochemical; conditions: ligand concentration 10 μM and 100 nM (FIG. 16)
Procedure: The ability of a further series of compounds 13, 42, 59, 99 and the PBD dimer Talirine to cross-link DNA was determined using an assay involving a linear double-stranded HexARev fragment (FIG. 15).
The ability of 13 and of a series of compounds to cleave double-stranded DNA was investigated using a modification of the previously established DNA footprinting assay (34). Following an overnight incubation of the ligand-DNA complexes, the mixture was mixed with strand separation buffer containing 10 mM EDTA, 10 mM NaOH, 0.1% bromophenol blue, 80% formamide and incubated at 100° C. for 3 min. The mixture was then immediately cooled on ice and run on an 8% denaturing gel. […] Using the GA marker, these additional bands were identified as cleavage products produced by 13 at certain A sites of the DNA fragment.
The preparation of the TyrT DNA fragment (FIG. 8) and HexARev DNA fragment (FIG. 15) have been previously described (34). Briefly, the sequence which had been cloned into the BamHI site of pUC18 was obtained by cutting with HindIII and EcoRI. Radiolabelled DNA fragments were prepared by filling in the 3′-end of the HindIII site with [α-^32P]dATP using Klenow DNA polymerase (exo-).
The radiolabelled DNA fragment was separated from the remainder of the plasmid DNA on a 6% non-denaturing polyacrylamide gel. The gel (20 cm long, 0.3 mm thick) was run at 400 V in 1×TBE running buffer for about 1-2 h, until the bromophenol blue had run most of the way down the gel. The glass plates were separated and the position of the labelled DNA fragment was established by short (1 min) exposure to an X-ray film. The relevant band was then cut from the gel and the radiolabelled DNA eluted by adding 300 μL 10 mM Tris-HCl, pH 7.5 containing 0.1 mM EDTA and gently agitating overnight at room temperature. The eluted DNA was finally precipitated with ethanol and re-suspended in a suitable volume of 10 mM Tris-HCl, pH 7.5 containing 0.1 mM EDTA buffer so as to give at least 10 counts per second/μL on a hand-held Geiger counter. With fresh plasmid and α-^32P-dATP this process typically generated about 150 μL of radiolabelled fragment DNA. The absolute concentration of the DNA is not important, and it is typically lower than 10 nM.
Compounds such as 13 were synthesised as described above and the PBD dimer Talirine was obtained from Aurum Pharmatech LLC. Stock solution was prepared by dissolving the ligands in DMSO to give a concentration of 10 mM. From this stock solution, working solutions of the desired concentration were prepared by diluting with 10 mM Tris-HCl, pH 7.5 containing 10 mM NaCl.
Radiolabelled DNA (1.5 μL) was mixed with 1.5 μL ligand solution of various concentrations (10 μM-10 nM) and incubated overnight at 37° C.
Labelled DNA (1.5 μL) was mixed with 20 μL sterile water and 5 μL of denaturing loading solution (80% formamide containing 10 mM EDTA, 10 mM NaOH, 0.01% bromophenol blue). The sample was then incubated at 100° C. for 20 min with the micro-centrifuge tube cap open to allow evaporation.
Loading solution (4.5 μL) was added to samples from Section 2.1. The digestion products were boiled for 3 min at 100° C. and quickly cooled on ice prior to electrophoresis. Separation was performed on an 8% denaturing polyacrylamide gel (40 cm long, 0.3 mm thick) at 1500V for about 2 h until the dye reached the bottom of the gel. […]

[5] = test system: three fluorescently labelled DNA sequences shown in FIG. 17; assay: FRET DNA melting, the three DNA sequences shown in FIG. 17 together; assay type: binding; conditions: different concentrations, all three sequences, vs control DNA
Source text: Further FRET DNA melting studies were undertaken on a number of molecules using three fluorescently labelled sequences. The sequences (FIG. 17) were designed to provide additional evidence that the series can form inter- and intrastrand cross-links. Inosines were inserted in place of traditional DNA bases in some cases to limit the number of binding sites available for the compounds to interact with. The short duplexes used in this FRET study are relatively unstable in the duplex form with a melting temperature below 30° C. so that, in the absence of ligand, a large part of the melting occurs below the starting temperature of the experiment. […] Increasing concentrations of 13 cause a greater amount of the melting transition to appear at the higher temperature (i.e. a greater number of the DNA molecules are cross-linked). A greater effect for 5′-AIIAGAITTTI′-3′ can be observed at lower concentrations of 13.
Oligonucleotides were obtained from ATDbio (Southampton, UK) in lyophilised form. They were labelled with a fluorophore molecule (F=fluorescein) at the 5′-end and a quencher molecule (Q=dabcyl) at the 3′-end of the complementary strand. Each oligonucleotide was dissolved in distilled H2O to form stock solutions of 100 PM. Working solutions of 5 μM were prepared by diluting the stock solution with distilled H2O.
The following buffers were used: 250 mM phosphate buffer pH 7.4 (consisting of sodium dihydrogen phosphate and sodium phosphate diluted in distilled H2O) and 5 M sodium chloride buffer. A11 buffers and distilled H2O were filtered through a […] filter prior to use.
For the FRET experiments a stock solutions were prepared by dissolving compound (such as compound 13) in DMSO to give a concentration of 10 mM. From this stock solution, working solutions of the desired concentration were prepared by diluting the stock solution with distilled H2O.
The reaction mixture was comprised of 4 μL of 250 mM phosphate buffer (final concentration of 50 mM), 4 μL flourophor and 4 μL quencher molecule of the appropriate oligonucleotide for a final concentration of 0.2 PM, 4 μL 5 M sodium chloride (final concentration of 1 M NaCl), and 4 μL of distilled H2O. This mixture was heated in an Eppendorf tube at 90° C. for 1 min and slowly cooled down to room temperature. This process was carried out to anneal the single strands to double-stranded DNA. Following this, 4 μL of the ligand was added in the desired concentration and the mixture incubated overnight either at room temperature or 4° C. A control sample of DNA only was prepared by mixing 4 μL 250 mM phosphate buffer (final concentration of 50 mM) with 4 μL fluorophore-labelled and 4 μL quencher-labelled oligonucleotides (of the appropriate sequence) to give a final concentration of 0.2 PM, 4 μL 5 M sodium chloride (final concentration of 1 M NaCl) and 4 μL distilled H2O. This mixture was analysed without prior annealing.
Fluorescence melting profiles were measured using a Roche LightCycler using a total reaction volume of 20 μL. Initially, the samples were denatured by heating to 95° C. at a rate of 1° C. min^−1. The samples were then maintained at 95° C. for 5 min before annealing by cooling to 25° C. at 1° C. min^−1. The samples were then held at 25° C. for a further 5 min and finally melted by heating to 95° C. at 1° C. min^−1. Annealing steps and melting steps were all recorded and changes in fluorescence were measured at 520 nm.
Tm values were obtained from the first derivates of the melting profiles using the Roche LightCycler software.

SW48 cell line = assay: MTT cytotoxicity assay, SW48; assay type: cell-based; conditions: MTT assay, 72 hour incubation
Procedure: as §1

SW620 cell line = assay: MTT cytotoxicity assay, SW620; assay type: cell-based; conditions: MTT assay, 72 hour incubation
Procedure: as §1

Row | Compound | IC50 (PC3 (prostate) cell line) | pIC50 ([1]; LIM1215, 72 h) | IC50 [3] | cleavage of HexARev DNA fragment [4] | also measured
1 | COc1cc2c(cc1OCCCCCC(=O)N1C[C@@H](CCl)c3c1cc(OC(=O)N1CCN(C)CC1)c1ccccc31)N=C[C@@H]1CCCCN1C2=O [Compound 57, (S)-1-(Chloromethyl)-3-(6-(((S)-2-methoxy-12-oxo-6a,7,8,9,10,12-hexahydrobenzo[e]pyrido[1,2-a][1,4]diazepin-3-yl)oxy)hexanoyl)-2,3-dihydro-1H-benzo[e]indol-5-yl 4-methylpiperazine-1-carboxylate] | 3 nM | 9.39 | > 10 nM | – | pIC50 (SW48 cell line (gastric); SW48, 72 h): 10.38; pIC50 ([2]; SW-620, 72 h): 8.96
2 | COc1cc2c(cc1OCc1cccc(CC(=O)N3C[C@@H](CCl)c4c3cc(OC(=O)N3CCN(C)CC3)c3ccccc43)c1)N=C[C@@H]1CCCCN1C2=O [Compound 59, (S)-1-(Chloromethyl)-3-(2-(3-((((S)-2-methoxy-12-oxo-6a,7,8,9,10,12-hexahydrobenzo[e]pyrido[1,2-a][1,4]diazepin-3-yl)oxy)-methyl)phenyl)acetyl)-2,3-dihydro-1H-benzo[e]indol-5-yl 4-methyl-piperazine-1-carboxylate] | 900 nM | – | – | limited cleavage | effect on melting temperature / DNA stabilisation [5]: does not impact on the stabilisation temperature of the parent DNA; also recorded: does not increase in proportion to the concentration; pIC50 ([3]; read-out: IC50 value in FaDu (prodrug form)): 5.35
3 | COc1cc2c(cc1OCCCC(=O)N1C[C@@H](CCl)c3c1cc(OC(=O)N1CCN(C)CC1)c1ccccc31)N=C[C@@H]1Cc3ccccc3CN1C2=O [Compound 61, (S)-1-(Chloromethyl)-3-(4-(((S)-2-methoxy-14-oxo-6a,7,12,14-tetrahydrobenzo[5,6][1,4]diazepino[1,2-b]isoquinolin-3-yl)oxy)butanoyl)-2,3-dihydro-1H-benzo[e]indol-5-yl 4-methylpiperazine-1-carboxylate] | > 10 nM | – | > 10 nM | – | –
4 | O=C(O)c1cc(OCc2ccccc2)c2ccccc2c1 [Compound 77, 4-(Benzyloxy)-2-naphthoic acid] | – | – | – | distinct cleavage patterns | –
5 | COc1cc2c(cc1OCCCCCC(=O)N1C[C@@H](CCl)c3c1cc(O)c1ccccc31)N=C[C@@H]1CCCCN1C2=O [Compound 99, (S)-3-((6-((S)-1-(Chloromethyl)-5-hydroxy-1,2-dihydro-3H-benzo[e]indol-3-Y1)-6-oxohexyl)oxyl)-2-methoxy-7,8,9,10-tetrahydrobenzo-[e]pyrido[1,2-a][1,4]diazepin-12(6aH)-one] | – | – | – | cleave DNA | pIC50 (SW48 cell line (gastric); SW48, MTT assay, 72 hour incubation): 10.46; pIC50 ([1]; LIM1215, MTT assay, 72 hour incubation): 10.41; pIC50 ([2]; SW-620, MTT assay, 72 hour incubation): 10.35
6 | COc1cc2c(cc1OCc1cccc(CC(=O)N3C[C@@H](CCl)c4c3cc(OC(=O)N3CCN(C)CC3)c3ccccc43)c1)NC(=O)[C@@H]1CCCCN1C2=O [Compound 140] | – | 7.74 | – | – | Cytotoxicity SW48 (72 hrs) (SW48 cell line): Not active; Cytotoxicity SW620 (72 hours) (SW620 cell line): Not active
